Experimental data taken from US9578875B2, “Fungicidal composition” (priority 2013, dated 2017).
Read-outs that look alike come from different tables or passages of the source.

How the values were obtained:
[1] = format: physicochemical; conditions: for Cyazofamid Technical, 0 Day / Cyazofamid Technical, 14 Day: storage at 54° C.
Method: Experiment: Cyazofamid technical was mixed with Na2CO3 (Inorganic base) in one batch and with HMT (organic base) in the other. Both the samples were kept at 54° C. for 14 days. After 14 days, the cyazofamid content in both the samples was analyzed. […] The stability of cyazofamid technical was tested in the presence of an inorganic base and compared with the stability in the presence of an organic base, with the following results: […]

[2] = format: physicochemical
Method: The following compositions comprising cyazofamid and Mancozeb were prepared, with the different stabilizers substituted. The AHS stability of these formulations was tested.
The formulation prepared according to Example 1 (adjusted for purity of the technical material) was modified to replace the HMT content with 1.0% sodium carbonate. The stability of both the formulations were tested, with the following results: […]

[3] = Example 1 formulation with HMT replaced by 1.0% Na2CO3
[4] = Example 1 formulation with HMT replaced by 1.0% Na2CO3, 14 D AHS at 54° C.
[5] = Example 1 formulation, presence of 1.0% HMT
[6] = Example 1 formulation, presence of 1.0% HMT, 14 D AHS at 54° C.

Compound | Cyazofamid Technical, 0 Day ([1]; HMT 0.5%) | Cyazofamid Technical, 14 Day ([1]; HMT 0.5%) | Cyazofamid Technical, 0 Day ([1]; Na2CO3 0.5%) | Cyazofamid Technical, 14 Day ([1]; Na2CO3 0.5%) | Cyazofamid content, 0 D ([1]; Presence of 0.5% HMT) | Cyazofamid content, 14 D AHS at 54° C. ([1]; Presence of 0.5% HMT) | Cyazofamid content, 0 D ([1]; Presence of 0.5% Na2CO3) | Cyazofamid content, 14 D AHS at 54° C. ([1]; Presence of 0.5% Na2CO3) | Degradation (%) ([2]; 14 day) | Active content in formulation, 0 D [2, 3] | Active content in formulation, 14 D AHS at 54° C. [2, 4] | Active content in formulation, 0 D [2, 5] | Active content in formulation, 14 D AHS at 54° C. [2, 6] | drop in cyazofamid concentration upon accelerated storage (2 weeks at 54° C.) [%] | Degradation with respect to storage at ambient condition (14 days) [%] | Purity after 14 days of storage at 10° C. (glass bottle, air tight plug and cap, 10° C., 14 days) | Purity after 14 days of storage at 54 ± 2° C. (glass bottle, air tight plug and cap, 54 ± 2° C., 14 days) | Purity after 14 days, Room temperature (30-35° C.) (glass bottle, air tight plug and cap, room temperature (30-35° C.), 14 days) | Degradation (%) [2, 4] [%] | Degradation (%) [2, 6] [%]
Cc1ccc(-c2c(Cl)nc(C#N)n2S(=O)(=O)N(C)C)cc1 [Cyazofamid, 4-chloro-2-cyano-N,N-dimethyl-5-p-tolylimidazole-1-sulfonamide] | 95.10 | 94.27 | 95.98 | 92.38 | 95.1 %, w/w | 94.27 %, w/w | 95.98 %, w/w | 92.38 %, w/w | 11.16 | 6.27 %, w/w | 5.57 %, w/w | 5.59 %, w/w | 5.43 %, w/w | 12.5 | 12.87 | 95.36 | 83.25 | 95.55 | – | –
Mancozeb | – | – | – | – | – | – | – | – | – | 70.67 %, w/w | 70.49 %, w/w | 70.34 %, w/w | 70.14 %, w/w | – | – | – | – | – | 0.25 | 0.28
